Counter-ions that a name gives are not always drawn.

One assay deals with hPSC-SCs.
Conditions: not given
Turning to `CCN1C[C@]2(COC)CC[C@H](O)[C@]34C1[C@@](O)([C@@H](OC)[C@H]23)[C@@]1(O)C[C@H](OC)[C@H]2C[C@@H]4[C@@H]1[C@H]2OC` [Delsoline], the z.score.t is recorded as 1.566. Same read-out and setting: in the case of `CCN1C[C@]2(C)CC[C@H](OC)[C@@]34C1[C@]1(OCO[C@@]15C[C@H](OC)[C@H]1C[C@]3(O)[C@@H]5[C@H]1OC)[C@@H](OC(C)=O)[C@H]24` [Deltaline] it was 0.1693; in that of `CN(CCCCCCCCCCN(C)C(=O)Oc1cccc([N+](C)(C)C)c1)C(=O)Oc1cccc([N+](C)(C)C)c1` [Demecarium bromide], 1.211.

The molecule `C[C@]12CC[C@H]3[C@@H](CCC4=CC(=O)CC[C@@]43C)[C@@H]1CC[C@@H]2C(=O)CO` [Deoxycorticosterone] showed a z.score.t of −1.303.

Molecule `C[C@]12CC[C@H](O)C[C@H]1CC[C@@H]1[C@@H]2CC[C@]2(C)[C@@H](C3=CC(=O)OC3)CC[C@]12O` [Digitoxigenin] showed a z.score.t of −2.008. On the same count and under the same terms, the result for `C[C@H]1O[C@@H](O[C@H]2[C@@H](O)C[C@H](O[C@H]3[C@@H](O)C[C@H](O[C@H]4CC[C@@]5(C)[C@H](CC[C@@H]6[C@@H]5C[C@@H](O)[C@]5(C)[C@@H](C7=CC(=O)OC7)CC[C@]65O)C4)O[C@@H]3C)O[C@@H]2C)C[C@H](O)[C@@H]1O` [Digoxin] reads −2.04.

Staying with this assay, now noted: HTS viability of hPSC-SCs in the presence of 30 mM glucose; Prestwick library; Table S4.
`CN(C)[C@@H]1C(O)=C(C(N)=O)C(=O)[C@@]2(O)C(O)=C3C(=O)c4c(O)ccc(Cl)c4[C@@H](O)[C@H]3C[C@@H]12` [Demeclocycline hydrochloride]: the z.score.t is 0.4318. `CC[N+](CC)(CC(=O)Nc1c(C)cccc1C)Cc1ccccc1` [Denatonium benzoate]: the z.score.t is −1.472. On to `Cc1cc(N)c2ccccc2[n+]1CCCCCCCCCC[n+]1c(C)cc(N)c2ccccc21` [Dequalinium dichloride], for which the z.score.t is 0.5046. On to `CNCCCN1c2ccccc2CCc2ccccc21` [Desipramine hydrochloride], for which the z.score.t is −1.014. On to `CC(=O)OCC(=O)[C@@]1(O)[C@H](C)C[C@H]2[C@@H]3CCC4=CC(=O)C=C[C@]4(C)[C@@]3(F)[C@@H](O)C[C@@]21C` [Dexamethasone acetate], for which the z.score.t is 0.4486. As to `CC1=NS(=O)(=O)c2cc(Cl)ccc2N1` [Diazoxide], the z.score.t is given as 0.4626. On to `CCCCOc1cc(C(=O)NCCN(CC)CC)c2ccccc2n1` [Dibucaine], for which the z.score.t is on record as −1.214. For `NS(=O)(=O)c1cc(Cl)c(Cl)c(S(N)(=O)=O)c1` [Dichlorphenamide], the z.score.t is −0.8317.

Consider `O=C(O)Cc1ccccc1Nc1c(Cl)cccc1Cl` [Diclofenac sodium], for which the z.score.t is 0.563. Still for that read-out and setting: in the case of `Cc1onc(-c2c(Cl)cccc2Cl)c1C(=O)N[C@@H]1C(=O)N2[C@@H]1SC(C)(C)[C@@H]2C(=O)O` [Dicloxacillin sodium salt] it was 1.942; in that of `O=c1oc2ccccc2c(O)c1Cc1c(O)c2ccccc2oc1=O` [Dicumarol], −0.3242; in that of `CCN(CC)CCOC(=O)C1(C2CCCCC2)CCCCC1` [Dicyclomine hydrochloride], −0.2865.

Take `O=c1[nH]cnc2c1ncn2[C@H]1CC[C@@H](CO)O1` [Didanosine]: the z.score.t is given as −0.07933. In the case of `C/C=C(/C(=C/C)c1ccc(O)cc1)c1ccc(O)cc1` [Dienestrol], the z.score.t is on record as −1.123.

On to `CCN(CC)C(=O)N1CCN(C)CC1` [Diethylcarbamazine citrate], for which the z.score.t turned out to be 0.378. With `CC/C(=C(/CC)c1ccc(O)cc1)c1ccc(O)cc1` [Diethylstilbestrol], the z.score.t is 1.624. Same read-out and setting: the result for `CC(=O)OCC(=O)[C@@]1(OC(C)=O)[C@@H](C)C[C@H]2[C@@H]3C[C@H](F)C4=CC(=O)C=C[C@]4(C)[C@@]3(F)[C@@H](O)C[C@@]21C` [Diflorasone Diacetate] reads 1.72; that for `O=C(O)c1cc(-c2ccc(F)cc2F)ccc1O` [Diflunisal], 0.7162; that for `C[C@]12CC[C@H](O)C[C@H]1CC[C@@H]1[C@@H]2C[C@@H](O)[C@]2(C)[C@@H](C3=CC(=O)OC3)CC[C@]12O` [Digoxigenin], −2.387.

Consider `CC(C)[C@@]1(NC(=O)[C@@H]2C[C@@H]3c4cccc5[nH]cc(c45)C[C@H]3N(C)C2)O[C@@]2(O)[C@@H]3CCCN3C(=O)[C@H](Cc3ccccc3)N2C1=O` [Dihydroergocristine mesylate], for which the z.score.t is on record as −0.3319. Same read-out and setting: in the case of `CN[C@@H]1[C@H](O[C@H]2[C@H](O[C@H]3[C@H](O)[C@@H](O)[C@H](NC(=N)N)[C@@H](O)[C@@H]3NC(=N)N)O[C@@H](C)[C@]2(O)CO)O[C@@H](CO)[C@H](O)[C@H]1O` [Dihydrostreptomycin sulfate] it was −0.359; in that of `COc1cc(C(=O)OCCCN2CCCN(CCCOC(=O)c3cc(OC)c(OC)c(OC)c3)CC2)cc(OC)c1OC` [Dilazep dihydrochloride], −1.444; in that of `CN(C(=O)C(Cl)Cl)c1ccc(OC(=O)c2ccco2)cc1` [Diloxanide furoate], 1.069. Consider `COc1ccc([C@@H]2Sc3ccccc3N(CCN(C)C)C(=O)[C@@H]2OC(C)=O)cc1` [Diltiazem hydrochloride], for which the z.score.t is recorded as 0.6906.

Take `CN(C)CCCSC(=N)N` [Dimaprit dihydrochloride]: the z.score.t was 1.918. Same read-out and setting: the result for `CN(C)CCOC(c1ccccc1)c1ccccc1.Cn1c(=O)c2[nH]c(Cl)nc2n(C)c1=O` [Dimenhydrinate] reads 0.08508; that for `CC1(C)OC(=O)NC1=O` [Dimethadione], −0.03362.

Consider `CCCCc1cc2ccccc2c(OCCN(C)C)n1` [Dimethisoquin hydrochloride], for which the z.score.t is listed as 0.04918.

With `CCCCC[C@H](O)/C=C/[C@@H]1[C@@H](C/C=C\CCCC(=O)O)[C@@H](O)C[C@H]1O` [Dinoprost trometamol], the z.score.t came out at 1.789. Still for that read-out and setting: in the case of `COc1ccc(C(=O)c2ccccc2O)c(O)c1` [Dioxybenzone] it was −0.2359; in that of `O=C(Nc1ccccc1)OCC(CN1CCCCC1)OC(=O)Nc1ccccc1` (stereo not drawn) [Diperodon hydrochloride], −0.7776; in that of `C[N+]1(C)CCC(=C(c2ccccc2)c2ccccc2)CC1` [Diphemanil methylsulfate], 0.05523. Take `CN(C)CCOC(c1ccccc1)c1ccccc1` [Diphenhydramine hydrochloride]: the z.score.t is given as −0.5689. As to `OC(CCCN1CCCCC1)(c1ccccc1)c1ccccc1` [Diphenidol hydrochloride], the z.score.t turned out to be 0.9906. For `CN1CCC(OC(c2ccccc2)c2ccccc2)CC1` [Diphenylpyraline hydrochloride], the z.score.t was −0.7376. On the same count and under the same terms, the result for `CNCC(O)c1ccc(OC(=O)C(C)(C)C)c(OC(=O)C(C)(C)C)c1` (stereo not drawn) [Dipivefrin hydrochloride] reads −1.319. Take `Cn1c(=O)c2c(ncn2CC(O)CO)n(C)c1=O` (stereo not drawn) [Diprophylline]: the z.score.t is recorded as 0.7415.

Regarding `OCCN(CCO)c1nc(N2CCCCC2)c2nc(N(CCO)CCO)nc(N3CCCCC3)c2n1` [Dipyridamole], the z.score.t is reported as −0.8392. Regarding `Cc1c(N(C)CS(=O)(=O)[O-])c(=O)n(-c2ccccc2)n1C.[Na+]` [Dipyrone], the z.score.t was −1.008.

The record behind these values is patent US20260053861A1, “CELL COMPOSITIONS AND METHODS OF USING THE SAME” (THE REGENTS OF THE UNIVERSITY OF CALIFORNIA, priority 2022, published 2026).
